Results: ChEMBL document CHEMBL3832761, “MMV Pathogen Box Bioactivity Data” (2017)
pIC50: −log10 of the molar value.

Tests used:
[1] = tested on: Plasmodium falciparum; experiment: Antimalarial activity: Asexual Blood Stage Plasmodium falciparum 3D7 IC50 (uM); type: functional, organism-based
[2] = tested on: Plasmodium falciparum; experiment: Antimalarial activity: Asexual Blood Stage Plasmodium falciparum Dd2 IC50 (uM); type: functional, organism-based
[3] = tested on: Plasmodium falciparum; experiment: Antimalarial activity: Asexual Blood Stage Plasmodium falciparum W2 IC50 (uM); type: functional, organism-based
[4] = tested on: Plasmodium berghei; experiment: Antimalarial activity: Liver Stage Plasmodium berghei sporozoite Luciferase assay: inhibition at 10 uM (%); type: functional
[5] = tested on: Plasmodium falciparum; experiment: Antimalarial activity: Gametocytes Plasmodium falciparum NF54 Gametocytes Stage V: inhibition at 10 uM (%); type: functional
[6] = tested on: HepG2; experiment: HepG2 inhibition at 10 uM (%) Cytotoxicity; type: functional; conditions: Homo sapiens
[7] = tested on: HepG2; experiment: Cytotoxicity data HepG2 CC20 (uM); type: functional
[8] = tested on: MRC5; experiment: MRC5 CC50 (uM) Cytotoxicity; type: functional; conditions: Homo sapiens

SMILES	pIC50 [1]	pIC50 [2]	pIC50 [3]	Inhibition [4] [%]	Inhibition [5] [%]	inhibition at 10 µM [6] [%]	CC20 [7] [µM]	inhibition [4]	inhibition [5]	CC50 [8] [µM]
Nc1ncc(Br)cc1-c1nc2cc(Cl)cnc2[nH]1	5.82	5.65	5.62	89	0	42				
CC(C(=O)N1CCCC1)N1CCN(S(=O)(=O)c2ccc(C(C)(C)C)cc2)CC1 (stereo not drawn)	6.05	5.88	5.66	18	1	0	>80			
COc1ccc(C2CC(c3cccs3)=NN2C(=O)c2ccco2)cc1OC (stereo not drawn)	6.52	6.01	6.07	26	1	15	43.1			
COc1ccc(Cl)cc1NC(=O)CN(C)C(=O)c1cnn(-c2ccccc2)n1	6.62	6.62	6.54	48	60	6	72.2			
COc1ccc(CCN2CCC(NCc3cccc(N(C)C)c3)CC2)cc1	5.92	5.52	5.35	67	4.11	6				
CCc1cc(=O)n(C)c(SC(C)C(=O)Nc2ccc(F)cc2)n1 (stereo not drawn)	5.71	5.70	5.68	47	0	25				
Cc1ccc(-c2cc(C(=O)Nc3cccnc3)c3cc(Br)ccc3n2)cc1	7.00							Series known to be active	Series known to be active	20
COc1cc(OC)cc(C(=O)NCC2Cc3cc(Cl)cc(-c4ccncc4)c3O2)c1 (stereo not drawn)	6.24	5.49	5.99	52	12.1	9				
Cc1ccc2cc(C3NC(=O)c4ccccc4N3)c(Cl)nc2c1 (stereo not drawn)	5.78	5.63	6.00	37	0	2	>80			
CCOc1ccccc1C(=O)Nc1cccc(-c2nc3ncccn3c2C)c1	5.90	5.57	5.96	94	42.5	4				
Cc1cc(NCC(C)C)c2[nH]nc(-c3ccccc3)c2n1	5.85		5.62			9				
FC(F)(F)c1cnc(Sc2nnc(-c3ccncc3)o2)c(Cl)c1	6.57	6.70	6.33	75	0	28				
Cc1nn(C)cc1C(C)Nc1nncc(-c2ccc(C(F)(F)F)cc2)n1 (stereo not drawn)	6.92	6.70	6.59	45	0	19				
CC(C)NCC(=O)Nc1cccc(C(=O)Nc2cccc(C(F)(F)F)c2)c1	6.46	5.39	5.65	47	40	0	11.5			
CC(C)C(C(=O)Nc1ccc(S(=O)(=O)N(C)C)cc1)c1ccc(Cl)cc1 (stereo not drawn)	6.03	6.19	6.10	66	31	17	5.35			
COc1cc2ncnc(NC3CCN(Cc4ccccc4)CC3)c2cc1OC	6.21	6.01	5.81	46	3	36				
Cc1cc(Nc2ccncc2)n2nc(C)c(-c3ccccc3Cl)c2n1	6.20	6.16	6.31	35	46	3	80			
Cc1ccc2[nH]c3c(NCCN(C)C)ncnc3c2c1	6.10	5.88	5.40	0	21	4				
O=C(C(Cc1c[nH]c2ccccc12)NS(=O)(=O)c1ccc(Cl)cc1)N1CCCCC1 (stereo not drawn)	< 5.70	5.70		0	23	9	21.9			
CC1(C)Cc2c(c(N3CCOCC3)nc3snc(Br)c23)CO1	6.54	6.59	6.43	4	1	4				
c1ccc2c(c1)CN(CC1CC1)CC1(CCN(Cc3c[nH]c4cnccc34)CC1)O2	6.21	5.80	5.61	89	8.4	35				
